Experimental data taken from PubChem BioAssay AID1963980 (Molecular Pharmacology Branch, DTP, NCI, 2024).

System: 475296-252-R-J1-PDC spheroid viability
Assay: Anticancer human tumor 475296-252-R-J1-PDC patient-derived rectal carcinoma cell line growth inhibition [PI3K]
Details: spheroids with HUVEC and MSC; for viability, T/C: stronger effect = lower value
Outline: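 Viability of mixed-cell spheroids was determined after exposure to pairwise combinations, one partner being inavolisib, alpelisib, duvelisib or copanlisib. Highest tested concentration matched clinical Cmax where known and 10 microM where not, descending in half-log steps.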

[1] = curve of first compound, second compound 0.0316 µM
[2] = curve of first compound, second compound 0.1 µM
[3] = curve of first compound, second compound 0.316 µM
[4] = curve of first compound, second compound 1 µM
[5] = curve of first compound, second compound 3.16 µM
[6] = curve of first compound, second compound 10 µM
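Note: spheroids exposed to agents for seven days before readout.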

Structure (SMILES): Cn1cnc2c(F)c(Nc3ccc(Br)cc3Cl)c(C(=O)NOCCO)cc21 + Cc1nc(NC(=O)N2CCCC2C(N)=O)sc1-c1ccnc(C(C)(C)C(F)(F)F)c1
- IC50 [1]: > 3000 nM
- IC50 [2]: > 3000 nM
- IC50 [3]: 2990 nM
- IC50 [4]: 760 nM
- IC50 [5]: 463 nM
- IC50 [6]: 77 nM
- viability, T/C (second compound 0.0316 µM, first compound 0.00949 µM): 102%
- viability, T/C (second compound 0.0316 µM, first compound 0.03 µM): 81.9%
- viability, T/C (second compound 0.0316 µM, first compound 0.0949 µM): 85.7%
- viability, T/C (second compound 0.0316 µM, first compound 0.3 µM): 75.7%
- viability, T/C (second compound 0.0316 µM, first compound 0.949 µM): 76.6%
- viability, T/C (second compound 0.0316 µM, first compound 3 µM): 61.8%
- viability, T/C (second compound 0.1 µM, first compound 0.00949 µM): 91.7%
- viability, T/C (second compound 0.1 µM, first compound 0.03 µM): 78.7%
- viability, T/C (second compound 0.1 µM, first compound 0.0949 µM): 93.2%
- viability, T/C (second compound 0.1 µM, first compound 0.3 µM): 73.2%
- viability, T/C (second compound 0.1 µM, first compound 0.949 µM): 74.6%
- viability, T/C (second compound 0.1 µM, first compound 3 µM): 58%
- viability, T/C (second compound 0.316 µM, first compound 0.00949 µM): 89.4%
- viability, T/C (second compound 0.316 µM, first compound 0.03 µM): 89.8%
- viability, T/C (second compound 0.316 µM, first compound 0.0949 µM): 73.4%
- viability, T/C (second compound 0.316 µM, first compound 0.3 µM): 72.9%
- viability, T/C (second compound 0.316 µM, first compound 0.949 µM): 64.3%
- viability, T/C (second compound 0.316 µM, first compound 3 µM): 48.3%
- viability, T/C (second compound 1 µM, first compound 0.00949 µM): 79.9%
- viability, T/C (second compound 1 µM, first compound 0.03 µM): 89.3%
- viability, T/C (second compound 1 µM, first compound 0.0949 µM): 69%
- viability, T/C (second compound 1 µM, first compound 0.3 µM): 63.9%
- viability, T/C (second compound 1 µM, first compound 0.949 µM): 47%
- viability, T/C (second compound 1 µM, first compound 3 µM): 35.9%
- viability, T/C (second compound 3.16 µM, first compound 0.00949 µM): 75.8%
- viability, T/C (second compound 3.16 µM, first compound 0.03 µM): 73.6%
- viability, T/C (second compound 3.16 µM, first compound 0.0949 µM): 66.2%
- viability, T/C (second compound 3.16 µM, first compound 0.3 µM): 59.9%
- viability, T/C (second compound 3.16 µM, first compound 0.949 µM): 36.4%
- viability, T/C (second compound 3.16 µM, first compound 3 µM): 23.8%
- viability, T/C (second compound 10 µM, first compound 0.00949 µM): 83.9%
- viability, T/C (second compound 10 µM, first compound 0.03 µM): 67%
- viability, T/C (second compound 10 µM, first compound 0.0949 µM): 45.6%
- viability, T/C (second compound 10 µM, first compound 0.3 µM): 28.2%
- viability, T/C (second compound 10 µM, first compound 0.949 µM): 18.7%
- viability, T/C (second compound 10 µM, first compound 3 µM): 5.93%

Structure (SMILES): Cn1ncc(Cl)c1-c1cc(C(=O)NC(CN)Cc2cccc(F)c2)sc1Cl (stereo unspecified)
- viability, T/C (compound 0.0316 µM): 85.6% [middle of 4 runs]
- viability, T/C (compound 0.1 µM): 88.6% [middle of 4 runs]
- viability, T/C (compound 0.316 µM): 68% [middle of 4 runs]
- viability, T/C (compound 1 µM): 65.5% [middle of 4 runs]
- viability, T/C (compound 3.16 µM): 75.9% [middle of 4 runs]
- viability, T/C (compound 10 µM): 70.7% [middle of 4 runs]
- IC50 (curve of compound): > 10000 nM

Structure (SMILES): CC(C)n1nc(-c2ccc3oc(N)nc3c2)c2c(N)ncnc21 + CC(Nc1ncnc2nc[nH]c12)c1cc2cccc(Cl)c2c(=O)n1-c1ccccc1
- IC50 [1]: > 100 nM
- IC50 [2]: > 100 nM
- IC50 [3]: > 100 nM
- IC50 [4]: > 100 nM
- IC50 [5]: > 100 nM
- IC50 [6]: > 100 nM
- viability, T/C (second compound 0.0316 µM, first compound 0.000316 µM): 87.4%
- viability, T/C (second compound 0.0316 µM, first compound 0.001 µM): 101%
- viability, T/C (second compound 0.0316 µM, first compound 0.00316 µM): 96%
- viability, T/C (second compound 0.0316 µM, first compound 0.01 µM): 76.7%
- viability, T/C (second compound 0.0316 µM, first compound 0.0316 µM): 66.4%
- viability, T/C (second compound 0.0316 µM, first compound 0.1 µM): 59.6%
- viability, T/C (second compound 0.1 µM, first compound 0.000316 µM): 97.8%
- viability, T/C (second compound 0.1 µM, first compound 0.001 µM): 88.2%
- viability, T/C (second compound 0.1 µM, first compound 0.00316 µM): 78%
- viability, T/C (second compound 0.1 µM, first compound 0.01 µM): 72.9%
- viability, T/C (second compound 0.1 µM, first compound 0.0316 µM): 77.4%
- viability, T/C (second compound 0.1 µM, first compound 0.1 µM): 62.3%
- viability, T/C (second compound 0.316 µM, first compound 0.000316 µM): 101%
- viability, T/C (second compound 0.316 µM, first compound 0.001 µM): 110%
- viability, T/C (second compound 0.316 µM, first compound 0.00316 µM): 105%
- viability, T/C (second compound 0.316 µM, first compound 0.01 µM): 92.7%
- viability, T/C (second compound 0.316 µM, first compound 0.0316 µM): 65.9%
- viability, T/C (second compound 0.316 µM, first compound 0.1 µM): 56.4%
- viability, T/C (second compound 1 µM, first compound 0.000316 µM): 111%
- viability, T/C (second compound 1 µM, first compound 0.001 µM): 97.8%
- viability, T/C (second compound 1 µM, first compound 0.00316 µM): 84.9%
- viability, T/C (second compound 1 µM, first compound 0.01 µM): 88.5%
- viability, T/C (second compound 1 µM, first compound 0.0316 µM): 63%
- viability, T/C (second compound 1 µM, first compound 0.1 µM): 59.2%
- viability, T/C (second compound 3.16 µM, first compound 0.000316 µM): 87.8%
- viability, T/C (second compound 3.16 µM, first compound 0.001 µM): 101%
- viability, T/C (second compound 3.16 µM, first compound 0.00316 µM): 94.6%
- viability, T/C (second compound 3.16 µM, first compound 0.01 µM): 75.2%
- viability, T/C (second compound 3.16 µM, first compound 0.0316 µM): 66.8%
- viability, T/C (second compound 3.16 µM, first compound 0.1 µM): 61.2%
- viability, T/C (second compound 10 µM, first compound 0.000316 µM): 91.3%
- viability, T/C (second compound 10 µM, first compound 0.001 µM): 92%
- viability, T/C (second compound 10 µM, first compound 0.00316 µM): 88.9%
- viability, T/C (second compound 10 µM, first compound 0.01 µM): 80.3%
- viability, T/C (second compound 10 µM, first compound 0.0316 µM): 68.9%
- viability, T/C (second compound 10 µM, first compound 0.1 µM): 63.6%
